# Results published in US20060052248A1, “Use of a substance with oxytocin activity in order to stimulate plant growth” (priority 2001, published 2006).
# Assays:
# Type in all cases: in vivo
# [1] = system: winter wheat (Triticum sativum); test: Germination test, winter wheat seeds
# Method: (§1) Statistical analysis was performed by means of 2-way ANOVA followed by Bonferoni's test for post hoc comparison. Results are given as mean values. Differences in the number of germinated seeds, coleoptile length, root length (Example 1) and growth of lettuce (Example 2) were assessed by Student's t-test for independent means. Results were considered significant when p<0.05. In each of 10 Petri dishes with a diameter of 10 cm, 100 seeds of winter wheat (Triticum sativum) are placed together with two filter papers. To five of the Petri dishes is added 4.5 ml of a 1 μg/ml aqueous solution of oxytocin. To the other five Petri dishes is added the same amount of tap water. All ten Petri dishes are placed in darkness for germination during fourteen days at a temperature of 18° C.
# [2] = system: bent (Agrostis tenuis); test: Germination test, bent seeds
# Method: as §1, with “seeds of bent (Agrostis tenuis) are placed” for “seeds of winter wheat (Triticum sativum) are placed”, “dishes are then placed in” for “dishes are placed in”
# [3] = system: lettuce (Lactuca sativa), sort "Calgary"; test: Growth test, lettuce in nutrient solution; conditions: for Root, dm / Shoot, dm: dry weight/fresh weight; for Root length / Root, dw / Root, fw / Shoot, dw / Shoot, fw / Whole plant, dw / Whole plant, fw: harvest 21 days; for Shoot/root, dw / Shoot/root, fw: ratio
# Method: Statistical analysis was performed by means of 2-way ANOVA followed by Bonferoni's test for post hoc comparison. Results are given as mean values. Differences in the number of germinated seeds, coleoptile length, root length (Example 1) and growth of lettuce (Example 2) were assessed by Student's t-test for independent means. Results were considered significant when p<0.05.
# The plant used was lettuce (Lactuca sativa), sort “Calgary” and non-disinfected ecological seeds were used. In the same manner as in Example 1, 150 seeds are germinated in oxytocin solution and 150 seeds are germinated in tap water, in both cases in darkness.
# After germination for six days, the germs are put into 1 litre test vessels with four germs per vessel. To ten vessels are added oxytocin treated germs and to ten other vessels are added germs treated with tap water, giving totally eighty plants. Each vessel contains 1 litre 300 μM calcium sulphate solution. Other nutrients were added on the first and third day and from day five until harvest, 21 days after transferring germs to vessels. Increasing volumes from a stock nutrient solution (24 mM potassium, 2.5 mM magnesium, 22.3 mM ammonium, 4 mM phosphorus, 46.9 mM nitrate, 1 mM chlorine and trace elements) were supplied to meet the immediate nutrient demand of plants with a relative growth rate of 20% day^−1. Three days after the transport of the germs to the vessels, 1 mg of oxytocin was added to half of the oxytocin treated germs and to half of the germs treated with tap water giving a oxytocin concentration of 1 μg/ml. The growth phase experiment was performed in a climate chamber with 14 hours illumination per day at a temperature of 18° C. at light and at a temperature of 14° C. in darkness.
# Accordingly, the eighty plants have been treated as follows:
# 20 plants (5 vessels each having 4 plants)—treated with tap water during germination and growth (denoted −ox/−ox);
# 20 plants (5 vessels each having 4 plants)—treated with oxytocin solution during germination and with tap water during growth (denoted +ox/−ox);
# 20 plants (5 vessels each having 4 plants)—treated with tap water during germination and with oxytocin solution during growth (denoted −ox/+ox);
# 20 plants (5 vessels each having 4 plants)—treated with oxytocin solution during germination and growth (denoted +ox/+ox).
# [4] = 1 μg/ml aqueous oxytocin, 14 days darkness, 18° C.
# [5] = 100 seeds per dish, 1 μg/ml aqueous oxytocin, 14 days darkness, 18° C.
# [6] = versus tap water, 1 μg/ml oxytocin
# [7] = +ox/+ox: oxytocin during germination and growth
# [8] = +ox/−ox: oxytocin during germination only
# [9] = −ox/+ox: oxytocin 1 μg/ml during growth only
substance,measurement,setting,value
oxytocin,Coleoptile length,[1]; [4],27.4 mm
same,Root length,[1]; [4],36.0 mm
same,Germinated seeds (mean number),[1]; [5],97.0
same,Effect on germination and growth of seeds (in words),[1]; [6],increased the number of germinated seeds and stimulated the growth of seeds
same,Coleoptile length,[2]; [4],39.1 mm
same,Root length,[2]; [4],15.7 mm
same,Germinated seeds (mean number),[2]; [5],9.8
same,Effect on germination and growth of seeds (in words),[2]; [6],only the increase in root length was significant
same,Root length compared with control (in words),[3]; +ox/+ox: oxytocin available during the whole experiment period,inhibited
same,Growth compared with control (−ox/−ox) (in words),[3]; +ox/+ox: oxytocin during both germination and growth,no effects compared with control
same,"Root, dm",[3]; [7],6.44b %
same,"Shoot, dm",[3]; [7],13.34b %
same,Root length,[3]; [7],21.00b cm
same,"Root, dw",[3]; [7],0.126b g
same,"Root, fw",[3]; [7],1.94ab g
same,"Shoot, dw",[3]; [7],0.596b g
same,"Shoot, fw",[3]; [7],4.466a g
same,"Whole plant, dw",[3]; [7],0.721b g
same,"Whole plant, fw",[3]; [7],6.41ab g
same,"Shoot/root, dw",[3]; [7],4.76a
same,"Shoot/root, fw",[3]; [7],2.30a
same,Growth compared with control (−ox/−ox) (in words),[3]; +ox/−ox: oxytocin at germination,significant increase in growth
same,"Root, dm",[3]; [8],7.03a %
same,"Shoot, dm",[3]; [8],14.06ab %
same,Root length,[3]; [8],24.4a cm
same,"Root, dw",[3]; [8],0.141a g
same,"Root, fw",[3]; [8],2.03a g
same,"Shoot, dw",[3]; [8],0.641ab g
same,"Shoot, fw",[3]; [8],4.559a g
same,"Whole plant, dw",[3]; [8],0.782a g
same,"Whole plant, fw",[3]; [8],6.59a g
same,"Shoot/root, dw",[3]; [8],4.59a
same,"Shoot/root, fw",[3]; [8],2.24a
same,"Root, dm",[3]; [9],6.92ab %
same,"Shoot, dm",[3]; [9],14.55a %
same,Root length,[3]; [9],23.6a cm
same,"Root, dw",[3]; [9],0.141a g
same,"Root, fw",[3]; [9],2.00a g
same,"Shoot, dw",[3]; [9],0.656a g
same,"Shoot, fw",[3]; [9],4.508a g
same,"Whole plant, dw",[3]; [9],0.797a g
same,"Whole plant, fw",[3]; [9],6.51ab g
same,"Shoot/root, dw",[3]; [9],4.67a
same,"Shoot/root, fw",[3]; [9],2.25a
same,Growth compared with control (−ox/−ox) (in words),[3]; −ox/+ox: oxytocin during growth in nutrient solution,significant increase in growth
